Turning to `CCc1ccc(CC(=O)Nc2ccc(S(N)(=O)=O)cc2)cc1Oc1cc(C#N)cc(C#N)c1Cl` [Compound I-52, 2-[3-(2-Chloro-3,5-dicyano-phenoxy)-4-ethyl-phenyl]-N-(4-sulfamoyl-phenyl)-acetamide], the melting point lay in the range of 119.7 to 123.3 °C.
In turn, `Cc1cc(S(N)(=O)=O)ccc1NC(=O)Cc1cc(Oc2cccc(C#N)c2)c2occc2c1` [Compound I-145, 2-[7-(3-Cyano-phenoxy)-benzofuran-5-yl]-N-(2-methyl-4-sulfamoyl-phenyl)-acetamide] displayed a melting point of 218.9 to 220 °C.
For `CCc1ccc(CC(=O)Nc2ccccc2)cc1Oc1cc(C#N)cc(C#N)c1Cl` [Compound I-208, 2-[3-(2-Chloro-3,5-dicyano-phenoxy)-4-ethyl-phenyl]-N-phenyl-acetamide] the value was 189.3 to 192.3 °C; for `COCCC(=O)N(C)S(=O)(=O)c1ccc(NC(=O)Cc2ccc(Cl)c(Oc3cc(Cl)cc(C#N)c3)c2F)c(Cl)c1` [Compound I-172, 2-[4-Chloro-3-(3-chloro-5-cyano-phenoxy)-2-fluoro-phenyl]-N-{2-chloro-4-[(3-methoxy-propionyl)-methyl-sulfamoyl]-phenyl}-acetamide], 199.3 to 203 °C; for `CCc1ccc(CC(=O)Nc2ccc(S(N)(=O)=O)cc2C)c(F)c1Oc1cc(C#N)cc(C(F)F)c1` [Compound I-180, 2-[3-(3-Cyano-5-difluoromethyl-phenoxy)-4-ethyl-2-fluoro-phenyl]-N-(2-methyl-4-sulfamoyl-phenyl)-acetamide], 237.6 to 238.4 °C.
In the case of `Cc1cc(CC(=O)Nc2ccc(S(N)(=O)=O)cc2)cc(Oc2cc(Cl)cc(C#N)c2)c1` [Compound I-141, 2-[3-(3-Chloro-5-cyano-phenoxy)-5-methyl-phenyl]-N-(4-sulfamoyl-phenyl)-acetamide], the melting point was in the range of 183.9 to 185.2 °C.
The molecule `Cc1cc(CC(=O)Nc2ccc(S(N)(=O)=O)cc2C)cc(Oc2cc(Cl)cc(C#N)c2)c1` [Compound I-142, 2-[3-(3-Chloro-5-cyano-phenoxy)-5-methyl-phenyl]-N-(2-methyl-4-sulfamoyl-phenyl)-acetamide] showed a melting point of 184.8 to 186 °C.
For `O=C(Cc1ccc(Cl)c(C(=O)c2cc(Cl)ccc2Cl)c1)Nc1ccccc1` [Compound I-251, 2-[4-Chloro-3-(2,5-dichloro-benzoyl)-phenyl]-N-phenyl-acetamide] the value was 167.1 to 168.5 °C.
Regarding `CNS(=O)(=O)c1ccc(NC(=O)Cc2ccc(Cl)c(Oc3cc(Cl)cc(C#N)c3)c2F)c(Cl)c1` [Compound I-168, 2-[4-Chloro-3-(3-chloro-5-cyano-phenoxy)-2-fluoro-phenyl]-N-(2-chloro-4-methylsulfamoyl-phenyl)-acetamide], the melting point was 199.1 to 200 °C.
For `Cc1cc(S(=O)(=O)N2CCSCC2)ccc1NC(=O)Cc1ccc(C)c(Oc2cc(Cl)cc(C#N)c2)c1` [Compound I-117, 2-[3-(3-Chloro-5-cyano-phenoxy)-4-methyl-phenyl]-N-[2-methyl-4-(thiomorpholine-4-sulfonyl)-phenyl]-acetamide] the value was 151.9 to 155.3 °C; for `CCc1ccc(CC(=O)Nc2ccccc2Cl)cc1Oc1cc(Cl)cc(Br)c1` [Compound I-24, 2-[3-(3-Bromo-5-chloro-phenoxy)-4-ethyl-phenyl]-N-(2-chloro-phenyl)-acetamide], 119.9 to 122.2 °C; for `Cc1cc(S(N)(=O)=O)ccc1NC(=O)Cc1ccc(C)c(C(=O)c2cc(C#N)ccc2C)c1` [Compound I-265, 2-[3-(5-Cyano-2-methyl-benzoyl)-4-methyl-phenyl]-N-(2-methyl-4-sulfamoyl-phenyl)-acetamide], 224.3 to 228.1 °C.
For `Cc1cc(S(N)(=O)=O)ccc1NC(=O)Cc1ccc(Br)c(Oc2cc(C#N)cc(C(F)F)c2)c1F` [Compound I-169, 2-[4-Bromo-3-(3-cyano-5-difluoromethyl-phenoxy)-2-fluoro-phenyl]-N-(2-methyl-4-sulfamoyl-phenyl)-acetamide] the value was 223.9 to 225 °C.
